Measured values from EP0357495A2, “3'Azido-3'-deoxythymidine (AZT) derivatives active against the AIDS virus” (IRE-CELLTARG S.A., priority 1988, dated 1990).

Legend:
[1] = system: cellules de la moëlle osseuse; assay: toxicity on bone marrow cells (colony count, day 7); assay type: cell-based; settings: bone marrow cells of a healthy donor, semi-solid medium with GMCSF, colonies at day 7
From the text: Des cellules ont été isolées à partir d'un prélèvement de moëlle osseuse chez un donneur sain. Elles ont été mises en culture en milieu semi-solide (agar) additionné de Granulocyte-Macrophage-Colony Stimulating Factor (GMCSF) en présence d'AZT et d'AZT 5′hémisuccinyl à différentes concentrations. Le nombre de cellules ayant donné naissance à une colonie a été déterminé par comptage de colonies au jour 7.
La toxicité du dérivé est de l'ordre de 10 fois plus faible que celle de l'AZT.

[2] = in vivo toxicity, intraperitoneal, 5-day-old NMRI mice; design: species or system souriceaux NMRI; settings: AZT-5′hémisuccinyl, i.p.
Experimental: L'AZT et son dérivé 5′hémisuccinyl ont été administrés par voie infra-péritonéale à de souriceaux NMRI âgés de 5 jours (100 µl/g de poids corporel). Les animaux ont été contrôlés tous les jours selon 2 critères : survie et poids pendant 25 jours.
Les résultats sont repris au tableau 9. Les souriceaux traités n'ont pas montre de différence significative dans la prise de poids par rapport aux contrôles. Tableau 9

[3] = system: lignées cellulaires continues; assay: in vitro toxicity on continuous cell lines (MTT method); assay type: cell-based; settings: all cell lines tested, comparison with AZT; tableau 8 is an image
From the text: Dans le but d'évaluer la toxicité du dérivé 5′hémisuccinyl de l'AZT, des expériences ont été réalisées sur différentes lignées cellulaires continues.
L'AZT et son dérivé 5′hémisuccinyl à différentes concentrations ont été mis en présence de cellules en phase de croissance. Le nombre de cellules vivantes a été déterminé par la méthode au MTT après 1, 2, 3 et 4 jours de culture. La cytotoxicité a été mesurée et est exprimée sous forme de CD₅₀.
Les lignées cellulaires continues utilisées sont les suivantes : - Cellules en suspension : [formula] - Cellules adhérentes : Hep-G2 : hépatocarcinome humain Hep-2 : carcinome épidermoïde humain
Les résultats sont repris au tableau 8.

[4] = system: virus HIV-1 (souche HTLV-IIIB); assay: viral antigen expression in HIV-infected HUT-78 cells (indirect immunofluorescence, laser cytofluorescence); assay type: cell-based
From the text: Les produits (AZT et AZT-5′ hémisuccinyl) à différentes concentrations ont été mis en présence de cellules HUT-78 infectées par le virus HIV-1 (souche HTLV-IIIB) à une multiplicité d'infection de 0.4. Tous les quatre jours, 3/4 du milieu ont été remplacés par du milieu frais. Après douze jours, l'expression des antigènes viraux a été mesurée par immunofluorescence indirecte à l'aide d'un sérum anti-HIV-I positif, et par cytofluorescence laser, tel que décrit par Pauwels et al. J. Virol. Meth. 16, 171-185 (1987).
Des résultats sont exprimés dans le tableau 3 en ED₅₀ et en pourcentage d'effet protecteur selon la formule : [formula] TABLEAU 3

[5] = system: virus HIV-1 (souche HTLV-IIIB); assay: anti-HIV activity in HIV-infected MT4 cells (MTT method); assay type: cell-based
Experimental: Les produits (AZT, AZT-5′ hémisuccinyl et AZT 5′-leucyl) à différentes concentrations ont été mis en présence de cellules MT4 (4 X 10⁴ cellules par puits de microtray) infectées ou non avec 100 CCID₅₀ de virus HIV-1 (souche HTLV-IIIB). La CCID₅₀ représente la quantité de virus à rajouter pour obtenir une infection de 50 % des cellules (dose infectieuse de cellules en culture 50).
Après cinq jours d'incubation à 37°C, le nombre de cellules vivantes a été déterminé par la méthode au MTT, basée sur la réduction par les cellules vivantes du 3′-(4, 5-diméthylthiazol-2-yl)-2,5-diphényltétrazoliumbromide, jaune, en formazan, bleu. L'activité antivirale et la cytotoxicité sont exprimées sous forme de ED₅₀ et de CD₅₀. La CD₅₀ représente la dose qui tue 50 % des cellules non infectées et la ED₅₀ représente la dose qui protège 50 % des cellules de l'infection virale.
La même expérience que celle décrite ci-avant (exemple 9.1)) a été réalisée, mais en présence de thymidine 250 µM et de 2′déoxycytidine 500 µM. En effet l'AZT entre en compétition avec la thymidine au niveau des enzymes de phosphorylation qui vont le transformer en AZT triphosphate (AZT TP) qui est la forme active du produit. Un excès de thymidine réduit donc très fortement l'activité de l'AZT, ce qui se traduit par une ED₅₀ plus élevée. Par conséquent, si le dérivé de l'AZT doit son activité à la libération d'AZT qui à son tour est phosphorylé en AZT TP, un excès de thymidine aura également pour effet d'élever la ED₅₀ du dérivé. La thymidine étant cytotoxique à la concentration utilisée, il est nécessaire de rajouter de la 2′déoxycytidine pour empêcher cette toxicité.
Les protocoles expérimentaux sont ceux décrits à l'exemple 9 3.1) et 9 3).

[6] = tableau 4, MT-4, with thymidine (250µM) + 2′déoxy-cytidine (500 µM)
[7] = tableau 4, MT-4, without thymidine / 2′déoxycytidine

## Cc1cn([C@H]2C[C@H](N=[N+]=[N-])[C@@H](COC(=O)CCC(=O)O)O2)c(=O)[nH]c1=O [AZT 5′hémisuccinyl, 5′-hémisuccinyl-3′-azido-3′-déoxythymidine]
[1]
  toxicité plus faible que celle de l'AZT: ~10 fois
[2]; dose 1 g/kg poids corporel (équivalent AZT 0.73)
  Survivants au jour 25: 100%
[2]; dose 2 g/kg poids corporel (équivalent AZT 1.46)
  Survivants au jour 25: 100%
[2]; dose 3 g/kg poids corporel (équivalent AZT 2.2)
  Survivants au jour 25: 50%
[2]; dose 3 g/kg poids corporel (équivalent AZT 2.2), au jour 1
  mortalité/jour: (50 % au jour 1)
[3]
  toxicité sur lignées cellulaires continues (in words): moins toxique que l'AZT
[4]; HUT-78, day 12, concentration 0.022 µM
  Pourcentage d'effet protecteur: -23%
[4]; HUT-78, day 12, concentration 0.11 µM
  Pourcentage d'effet protecteur: 48%
[4]; HUT-78, day 12, concentration 0.54 µM
  Pourcentage d'effet protecteur: 21%
[4]; HUT-78, day 12, concentration 2.71 µM
  Pourcentage d'effet protecteur: 72%
[4]; HUT-78 cells, multiplicity of infection 0.4, day 12
  ED₅₀: ED₅₀ AZT-5′hémisuccinyl = 1,77 µM
[5]; comparison with AZT
  activité (compared with AZT, in words): comparable à celle de l'AZT
[5]; de l'ordre de
  indice de sélectivité: ~28 000
[5]; tableau 2, MT4 cells infected with 100 CCID₅₀ HIV-1, 5 days at 37°C, dose that protects 50 % of cells
  ED₅₀: .0069 µM
[5]; tableau 2, indice de sélectivité = CD₅₀ sur ED₅₀, MT4 cells
  SI: 28543
[5]; tableau 2, ratio within the same experiment, MT4 cells
  SI dérivé/SI AZT: 4.7
[5]; [6]
  ED₅₀: 6,8399 µM
  SI: 53
[5]; [7]
  ED₅₀: 0,0523 µM
  SI: 5633
